# In PubChem BioAssay AID1963970 (Molecular Pharmacology Branch, DTP, NCI, 2024):
# Tested on: 931267-113-T-J1-PDC multicell spheroid viability
# Experiment: Anticancer human tumor 931267-113-T-J1-PDC patient-derived colon adenocarcinoma cell line growth inhibition [PI3K]
# Conditions: for IC50: curve of first compound; for viability, T/C: stronger effect = lower value
# Procedure, shortened: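 Targeted small molecules plus PI3K inhibitors, half-log dose series from Cmax (default top 10 microM), were applied to heterotypic spheroids of cancer cells with HUVEC and MSCs. Viability indicated growth inhibition.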
# [1] = second compound 0.0316 µM, first compound 0.0316 µM
# [2] = second compound 0.0316 µM, first compound 0.1 µM
# [3] = second compound 0.0316 µM, first compound 0.316 µM
# [4] = second compound 0.0316 µM, first compound 1 µM
# [5] = second compound 0.1 µM, first compound 0.0316 µM
# [6] = second compound 0.1 µM, first compound 0.1 µM
# [7] = second compound 0.1 µM, first compound 0.316 µM
# [8] = second compound 0.1 µM, first compound 1 µM
# [9] = second compound 0.316 µM, first compound 0.0316 µM
# [10] = second compound 0.316 µM, first compound 0.1 µM
# [11] = second compound 0.316 µM, first compound 0.316 µM
# [12] = second compound 0.316 µM, first compound 1 µM
# [13] = second compound 1 µM, first compound 0.0316 µM
# [14] = second compound 1 µM, first compound 0.1 µM
# [15] = second compound 1 µM, first compound 0.316 µM
# [16] = second compound 1 µM, first compound 1 µM
# [17] = second compound 3.16 µM, first compound 0.0316 µM
# [18] = second compound 3.16 µM, first compound 0.1 µM
# [19] = second compound 3.16 µM, first compound 0.316 µM
# [20] = second compound 3.16 µM, first compound 1 µM
# [21] = second compound 10 µM, first compound 0.0316 µM
# [22] = second compound 10 µM, first compound 0.1 µM
# [23] = second compound 10 µM, first compound 0.316 µM
# [24] = second compound 10 µM, first compound 1 µM
# 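Note: viability read 7 days after compound addition.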
smiles,measurement,setting,value
CC(C)NCC(C(=O)N1CCN(c2ncnc3c2C(C)CC3O)CC1)c1ccc(Cl)cc1 (centres undefined) + CC(Nc1ncnc2nc[nH]c12)c1cc2cccc(Cl)c2c(=O)n1-c1ccccc1,IC50,second compound 0.0316 µM,> 10 µM
same,IC50,second compound 0.1 µM,> 10 µM
same,IC50,second compound 0.316 µM,> 10 µM
same,IC50,second compound 1 µM,> 10 µM
same,IC50,second compound 3.16 µM,> 10 µM
same,IC50,second compound 10 µM,> 10 µM
same,"viability, T/C",[1],97.2%
same,"viability, T/C",[2],99.5%
same,"viability, T/C",[3],92.1%
same,"viability, T/C",[4],101%
same,"viability, T/C","second compound 0.0316 µM, first compound 3.16 µM",97.1%
same,"viability, T/C","second compound 0.0316 µM, first compound 10 µM",81.6%
same,"viability, T/C",[5],108%
same,"viability, T/C",[6],95.6%
same,"viability, T/C",[7],100%
same,"viability, T/C",[8],98.8%
same,"viability, T/C","second compound 0.1 µM, first compound 3.16 µM",97.1%
same,"viability, T/C","second compound 0.1 µM, first compound 10 µM",74.7%
same,"viability, T/C",[9],108%
same,"viability, T/C",[10],107%
same,"viability, T/C",[11],106%
same,"viability, T/C",[12],94.7%
same,"viability, T/C","second compound 0.316 µM, first compound 3.16 µM",99.6%
same,"viability, T/C","second compound 0.316 µM, first compound 10 µM",85%
same,"viability, T/C",[13],105%
same,"viability, T/C",[14],107%
same,"viability, T/C",[15],93%
same,"viability, T/C",[16],99.6%
same,"viability, T/C","second compound 1 µM, first compound 3.16 µM",99.1%
same,"viability, T/C","second compound 1 µM, first compound 10 µM",80.7%
same,"viability, T/C",[17],103%
same,"viability, T/C",[18],100%
same,"viability, T/C",[19],89.7%
same,"viability, T/C",[20],94.6%
same,"viability, T/C","second compound 3.16 µM, first compound 3.16 µM",90.9%
same,"viability, T/C","second compound 3.16 µM, first compound 10 µM",71.7%
same,"viability, T/C",[21],95.2%
same,"viability, T/C",[22],86%
same,"viability, T/C",[23],86.8%
same,"viability, T/C",[24],87.7%
same,"viability, T/C","second compound 10 µM, first compound 3.16 µM",88.7%
same,"viability, T/C","second compound 10 µM, first compound 10 µM",75.1%
CCN1CCN(Cc2ccc(Nc3ncc(F)c(-c4cc(F)c5nc(C)n(C(C)C)c5c4)n3)nc2)CC1 + CC(Nc1ncnc2nc[nH]c12)c1cc2cccc(Cl)c2c(=O)n1-c1ccccc1,IC50,second compound 0.0316 µM,> 1 µM
same,IC50,second compound 0.1 µM,> 1 µM
same,IC50,second compound 0.316 µM,> 1 µM
same,IC50,second compound 1 µM,> 1 µM
same,IC50,second compound 3.16 µM,> 1 µM
same,IC50,second compound 10 µM,> 1 µM
same,"viability, T/C","second compound 0.0316 µM, first compound 0.00316 µM",102%
same,"viability, T/C","second compound 0.0316 µM, first compound 0.01 µM",94.6%
same,"viability, T/C",[1],108%
same,"viability, T/C",[2],100%
same,"viability, T/C",[3],104%
same,"viability, T/C",[4],90.2%
same,"viability, T/C","second compound 0.1 µM, first compound 0.00316 µM",101%
same,"viability, T/C","second compound 0.1 µM, first compound 0.01 µM",110%
same,"viability, T/C",[5],104%
same,"viability, T/C",[6],109%
same,"viability, T/C",[7],100%
same,"viability, T/C",[8],84.2%
same,"viability, T/C","second compound 0.316 µM, first compound 0.00316 µM",111%
same,"viability, T/C","second compound 0.316 µM, first compound 0.01 µM",107%
same,"viability, T/C",[9],97.7%
same,"viability, T/C",[10],98.5%
same,"viability, T/C",[11],109%
same,"viability, T/C",[12],98.2%
same,"viability, T/C","second compound 1 µM, first compound 0.00316 µM",103%
same,"viability, T/C","second compound 1 µM, first compound 0.01 µM",101%
same,"viability, T/C",[13],105%
same,"viability, T/C",[14],102%
same,"viability, T/C",[15],102%
same,"viability, T/C",[16],86%
same,"viability, T/C","second compound 3.16 µM, first compound 0.00316 µM",107%
same,"viability, T/C","second compound 3.16 µM, first compound 0.01 µM",93.4%
same,"viability, T/C",[17],86.8%
same,"viability, T/C",[18],95.3%
same,"viability, T/C",[19],92.8%
same,"viability, T/C",[20],81.2%
same,"viability, T/C","second compound 10 µM, first compound 0.00316 µM",92%
same,"viability, T/C","second compound 10 µM, first compound 0.01 µM",86.7%
same,"viability, T/C",[21],89.7%
same,"viability, T/C",[22],80.8%
same,"viability, T/C",[23],81.9%
same,"viability, T/C",[24],67.9%
